The text below walks through data of patent US12653822B2, “Aripiprazole formulations having increased injection speeds” (ALKERMES PHARMA IRELAND LIMITED, priority 2014, dated 2026).

Series [1] in a line: Phase 3 extension study: rapid IM injection of Compound 1, pain and injection site reactions. It counts as in vivo, human. As to conditions: fast injection. The protocol: Injection site reactions and pain upon IM injection of Compound 1 are a potential safety concern. A Phase 3, multicenter, extension study was conducted in 81 sites to assess the effect of rapid IM injections of Compound 1 on human patients diagnosed with stable schizophrenia. Briefly, 332 subjects enrolled in the study were assigned PFS. Compound 1 is formulated as a pre-filled syringe (PFS) of an extended release aqueous suspension of a therapeutically effective amount of Compound 1. An injection volume of 3.4 mL or 1.6 mL of the aqueous suspension was administered according to protocol I at a rate of less than 10 seconds by inserting the 20 gauge needle in the gluteal muscle. ISRs upon IM injection of Compound 1 were assessed at each visit. Over 5000 injections of Compound 1 have been administered intramuscularly with an ISR rate of less than 1%.
• 1. TAP the pre-filled syringe at least 10 times to dislodge any material that may have settled. • 2. […] Replace with new needle (Steps 3 & 4) and administer into an adjacent site in the same gluteal muscle (Steps 5 & 6).] • If you are unable to complete the injection, replace with new needle (Steps 3 & 4) and readminister into an adjacent site in the same gluteal muscle (Steps 5 & 6). • 7. […]

For series [2] the following is noted: cited from earlier work.

Where only a bound is given, the exact number is not on record here.

On to `CCCCCCCCCCCC(=O)OCN1C(=O)CCc2ccc(OCCCCN3CCN(c4cccc(Cl)c4Cl)CC3)cc21` [Compound 1, (7-(4-(4-(2,3-dichlorophenyl)piperazin-1-yl)butoxy)-2-oxo-3,4-dihydroquinolin-1(2H)-yl)methyl dodecanoate], for which, in series [1], the “injection site reactions and/or elevated pain levels reported, % of patients” value is under 1%.

On to `O=C1CCc2ccc(OCCCCN3CCN(c4cccc(Cl)c4Cl)CC3)cc2N1` [aripiprazole free base, 7-{4-[4-(2,3-dichlorophenyl)-1-piperazinyl]butoxy}-3,4-dihydro-2(1H)-quinolinone], for which the Tissue irritation entry in series [2] (following intramuscular (IM) injection and subcutaneous (SC) injection) is given as “moderate to severe”. In addition, the Pharmacokinetic profile entry in series [2] (injections) is reported as “prolonged”.
